Columns and labels:
[1] = test system: catecholamine transport of chromaffin granule membranes; assay: Catecholamine (dopamine) transport in chromaffin granule membranes; type: biochemical, cattle; settings: role: inhibitor
Procedure: Chromaffin granule membranes were prepared from adrenal glands collected from slaughtered cattle according to Reference A (Nathan Nelson et al., 1988, Chromaffin Granule Proton Pump, Methods in Enzymology, 157, 619-633). Chromaffin granule membranes prepared by sucrose density gradient centrifugation were suspended in 2 ml of SME buffer (20 mM MOPS-tris (pH 7.0), 0.3 M sucrose, 5 mM EDTA, 10 μg/ml leupeptin, and 10 μg/ml pepstatin)+25% glycerol, and the resulting suspension was aliquoted and stored at −80° C. Under these conditions, the ATP transport activity, the V-ATPase activity, and the catecholamine transport activity remain fully active for at least one year.
A catecholamine transport inhibition experiment was carried out in the same manner as the ATP transport experiment except that the experiment used a measurement liquid containing 20 mM MOPS-tris (pH 7.0), 0.1 M sucrose, 0.1 M potassium chloride, 5 mM magnesium acetate, and about 5 μg of chromaffin granule membranes. To 0.5 ml of the measurement liquid, 2 mM ATP was added, and the resulting mixture was incubated at 30° C. for about 5 minutes, followed by addition of 3[H]-dopamine thereto to a final concentration of 10 μM. After further incubation at 30° C. for 15 minutes, 0.2 ml of the reaction liquid was subjected to suction filtration through a Millipore MCE membrane filter with a pore size of 0.45 μm, and the radioactivity on the filter was measured (N=3). The substrate, 3[H]-dopamine, was prepared by mixing 3,4-[RING-2,5,6-^3H]dihydroxyphenylethylamine (dopamine) (30 Ci/mmol) (manufactured by New England Nuclear) with dopamine hydrochloride (manufactured by LKT Laboratories) such that a final concentration of […] was achieved during the use.
Chromaffin granule membrane vesicles were prepared in the same manner as in Example 5, and uptake of radiolabeled ATP into the vesicles was measured. Transport activity of catecholamine (dopamine) and ATP-dependent proton transport by V-ATPase were also measured in the same manner as in Example 5.

[2] = test system: macrophages (THP-1 cells); assay: ATP secretion from macrophages differentiated from THP-1 cells upon LPS stimulation; type: cell-based, human; settings: 10 μM, 10 μg/ml LPS, N=10 (FIG. 9)
Procedure: Human acute monocytic leukemia cells (THP-1 cells (ACTT)) were cultured in accordance with Reference D. THP-1 cells were cultured in RPMI1640 medium supplemented with 10% fetal bovine serum (FBS), 100 units/ml penicillin, and 100 μg/ml streptomycin at 37° C. in 5% CO2 for 1 day. Further, THP-1 cells were cultured in RPMI1640 medium supplemented with 1 μg/ml Escherichia coli serotype 055:B5 (manufactured by Sigma-Aldrich) and 1000 units/ml mouse IFN-γ (manufactured by R&D Systems) at 37° C. in 5% CO2 for 1 day, to allow differentiation into macrophages.
The differentiated macrophages were cultured in RPMI1640 medium supplemented with 1 mg/ml Escherichia coli serotype 055:B5 (manufactured by Sigma-Aldrich) and 1000 units/ml mouse IFN-γ (manufactured by R&D Systems) at 2.5×10^4 cells/well in a 24-well plate at 37° C. in 5% CO2 for 4 days. The medium was replaced with HBSS (manufactured by Gibco) supplemented with imeglimin or clodronate), and then LPS (10 μg/ml) was added thereto, followed by further performing incubation for 10 minutes and then collection of 200 μl of the supernatant. The supernatant was immediately treated on a heat block at 95° C. for 10 minutes, and ATP in the supernatant was quantified using an ATP assay kit−Luminescence (manufactured by Dojindo) (N=10).

LX-2 cells = assay: ATP secretion from LX-2 cells; type: cell-based, human; settings: 10 μM clodronate
Procedure: Cells of the immortalized human hepatic stellate cell line LX-2 (manufactured by Merck) was cultured in Dulbecco's modified Eagle's medium (DMEM, 4500 mg/l Glucose, D5796, manufactured by Sigma-Aldrich) supplemented with inactivated 2% fetal bovine serum (FBS), 10 IU/ml penicillin, and 10 IU/ml streptomycin in a T25 or T75 flask at 37° C. in 5% CO2.
LX-2 cells (2×10^6 cells per well) were seeded in a collagen-coated 6-well culture dish containing Dulbecco's modified Eagle's medium (manufactured by Sigma-Aldrich) supplemented with 10 IU/ml penicillin, […] 2% fetal bovine serum, and cultured in 5% CO2 at 37° C. After 3 days, the LX-2 cells were washed twice and preincubated in Krebs-Ringer buffer (10 mM HEPES-Tris, pH 7.4, 128 mM NaCl, 1.9 mM KCl, 1.2 mM KH2PO4, 1.3 mM MgSO4, 26 mM NaHCO3, 2.4 mM CaCl2, 10 mM glucose, 0.2% (w/v) bovine serum albumin) with or without 10 μM clodronate. The LX-2 cells were then stimulated with Krebs-Ringer buffer supplemented with ionomycin (manufactured by Cayman) regardless of whether clodronate was present or not. For the stimulation, 1 mM EGTA (manufactured by Dojindo) or 10 μM serotonin (5-HT, manufactured by Sigma-Aldrich) was used. The ATP concentration in the culture supernatant was measured in the same manner as in Example 6.
For an siRNA experiment, a TriFECTa (trademark) RNAi Kit (manufactured by Integrated DNA Technologies) was used. A scramble RNA (scRNA) as a control siRNA, or a VNUT-specific siRNA, was incubated with Lipofectamine 3000 reagent (manufactured by Invitrogen) in OptiMEM reduced-serum medium (#31985070, manufactured by Gibco) at room temperature for 15 minutes, and then added directly to the cultured cells. The LX-2 cells as the transfection mixture were plated, and then cultured for 48 hours. The base sequences of VNUT siRNA forward and VNUT siRNA reverse, used for the above kit, are shown in SEQ ID NOs: 1 and 2, respectively. A positive control for an endogenous gene (#51-01-08-02) and a negative control (#51-01-14-03) were used.

mouse auricle = assay: Topical solutions on imiquimod-induced psoriasis (Example 21); type: in vivo; settings: for degree of auricular thickening: N=2 (FIG. 44)
Procedure: On Days 1, 2, 3, 5, and 6, 62.5 mg of 5% imiquimod cream (Beselna Cream 5%) was applied to auricles of wild-type mice (IMQ) or VNUT knockout mice (VNUT KO+IMQ) to induce psoriatic symptoms. […] For a negative control, only 20% glycerin solution was applied. In IMQ+1% IMG and IMQ+0.1% IMG, 20% glycerin solution supplemented with 1% (w/v) imeglimin and 0.1% (w/v) imeglimin, respectively, was applied immediately after the imiquimod application. Further, in IMQ+1% Clo and IMQ+0.1% Clo, 20% glycerin solution supplemented with 1% (w/v) clodronate and 0.1% (w/v) clodronate, respectively, was applied immediately after the imiquimod application.

[3] = topical 0.1% (w/v) in 20% glycerin solution after imiquimod
[4] = topical 1% (w/v) in 20% glycerin solution after imiquimod

| Compound | ATP-dependent dopamine transport activity ([1]; 5 mM PEP, 10 μM 3H-dopamine, 2 mM ATP, N=3, control 11.07±0.129) | inhibition of catecholamine transport ([1]; up to 5 mM PEP (data not shown)) | LPS-induced ATP secretion from macrophages [2] | 5-HT-promoted ATP secretion (LX-2 cells; 10 μM 5-HT, N=6 (FIG. 25)) | ATP exocytosis (LX-2 cells; ionomycin, N=6 (FIG. 24)) | auricular thickness compared with imiquimod-treated VNUT knockout mice (mouse auricle; topical 0.1% (w/v)) | degree of auricular thickening (mouse auricle; [3]) | auricular thickness compared with imiquimod-treated VNUT knockout mice (mouse auricle; topical 1% (w/v)) | degree of auricular thickening (mouse auricle; [4]) | concentration dependence of effect on auricular thickening (mouse auricle; topical 0.1% and 1% (w/v)) |
| --- | --- | --- | --- | --- | --- | --- | --- | --- | --- | --- |
| C=C(OP(=O)(O)O)C(=O)O [PEP, phosphoenolpyruvic acid] | 12.41±0.250 nmol/mg protein | did not inhibit |  |  |  |  |  |  |  |  |
| O=P(O)(O)C(Cl)(Cl)P(=O)(O)O [clodronate] |  |  | strongly inhibited | strongly inhibited | inhibited | about the same | improved | about the same | improved |  |
| C[C@@H]1N=C(N)NC(N(C)C)=N1 [imeglimin] |  |  | strongly inhibited |  |  |  | no effect | about the same | improved | concentration-dependent |

Reference: patent US20260306500A1, “METHOD OF INHIBITING ADENOSINE TRIPHOSPHATE SECRETION, METHOD OF INHIBITING HEPATIC STELLATE CELL ACTIVATION, METHOD OF DEACTIVATING HEPATIC STELLATE CELL, METHOD OF TREATING HEPATIC FIBROSIS, METHOD OF TREATING NON-ALCOHOLIC STEATOHEPATITIS, AND METHOD OF TREATING PSORIASIS” (Kurume University, priority 2023, published 2026)
